Here are results for seven compounds from US4226878A, “Imidazole derivative” (Kissei Pharmaceutical Co., Ltd., priority 1978, dated 1980).

SMILES strings stand for the structures. pIC50: −log10 of the molar value. Structures can show the parent of a compound that is named as a salt.

One experiment has as its target T1, thromboxane synthetase from rabbit platelet microsomes (Oryctolagus cuniculus, UniProt G1TAZ9).
T1 construct: thromboxane synthetase from rabbit platelet microsomes; from tissue; host or cells: rabbit platelet microsomes
T1 sequence (G1TAZ9 1-530): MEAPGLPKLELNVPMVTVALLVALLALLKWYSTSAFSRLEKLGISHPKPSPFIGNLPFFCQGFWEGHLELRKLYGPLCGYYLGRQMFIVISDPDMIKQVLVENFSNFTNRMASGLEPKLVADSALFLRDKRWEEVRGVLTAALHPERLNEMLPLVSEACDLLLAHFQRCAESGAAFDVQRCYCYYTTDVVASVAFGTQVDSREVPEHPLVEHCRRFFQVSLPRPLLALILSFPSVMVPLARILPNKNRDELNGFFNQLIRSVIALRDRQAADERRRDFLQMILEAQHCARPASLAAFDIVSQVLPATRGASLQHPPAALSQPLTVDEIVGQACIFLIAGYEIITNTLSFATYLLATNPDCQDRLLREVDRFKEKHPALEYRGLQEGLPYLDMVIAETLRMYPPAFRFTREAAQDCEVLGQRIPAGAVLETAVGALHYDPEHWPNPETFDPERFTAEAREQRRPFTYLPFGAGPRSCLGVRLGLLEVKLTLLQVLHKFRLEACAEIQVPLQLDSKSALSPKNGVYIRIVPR
Briefly: inhibition of thromboxane synthetase from rabbit platelet microsomes (conversion of prostaglandin H2 into thromboxane B2). It counts as biochemical. The following applies: read-out: molar concentration producing a 50% inhibition of thromboxane synthetase. The text has this: [Nature, Vol. 261, No. 6, 17-, (1976)].
The inhibitory action of the imidazole derivatives of this invention can be confirmed by determination of thromboxane B2 produced by thromboxane synthetase from prostaglandin H2 via thromboxane A2.
Take `CC(=Cc1ccc(Cn2ccnc2)cc1)C(=O)O` [P-(1-imidazolylmethyl)-α-methylcinnamic acid hydrochloric acid salt]: the pIC50 is 8.40.

For the next experiment, the system named is thromboxane synthetase.
Assay: not given
To be noted: literature reports; cited from earlier work.
Turning to `CC(C)c1ccccc1-n1ccnc1` [1-(2-isopropylphenyl)imidazole], the “inhibitory effect on thromboxane synthetase (in words, prior art)” value (“inhibitory effect … (in words, prior art)” for short) is given as “strong inhibitory effect”.

Regarding `c1c[nH]cn1` [imidazole], the “inhibitory effect … (in words, prior art)” value is reported as “very weak inhibitory effect”.

In the case of `c1ccc(Cn2ccnc2)cc1` [1-benzylimidazole], the “inhibitory effect … (in words, prior art)” value was “strong inhibitory effect”.

Consider `CCCCCCCCCCn1ccnc1` [1-decylimidazole], for which the “inhibitory effect … (in words, prior art)” value was “strong inhibitory effect”.

Take `CCCCCCCCCn1ccnc1` [1-nonylimidazole]: the “inhibitory effect … (in words, prior art)” value is recorded as “strong inhibitory effect”.

On to `COC(=O)CCCCCCn1ccnc1` [1-(6-methoxycarbonylhexyl) imidazole], for which the “inhibitory effect … (in words, prior art)” value is on record as “inhibitory effect”.
